In US20220241311A1, “METHODS AND MATERIALS FOR TREATING GLYCOSYLATION DISORDERS” (priority 2018, published 2022):

Experiments:
[1] = system: serum transferrin; test: Glycomics / high-resolution mass spectrometry of intact serum transferrin at T0 and T3; format: in vivo, human; details: for Ratio A-Glyco / DiGlyco transferrin / Ratio Mono-Glyco / DiGlyco transferrin / Ratio Trisialo-Glyco / DiGlyco transferrin: T = 3; for Ratio A-Glyco / DiGlyco transferrin: control range <=0.01040; for Ratio Mono-Glyco / DiGlyco transferrin: control range <=0.02700; for Ratio Trisialo-Glyco / DiGlyco transferrin: control range <=0.031900
Method: Liver transaminases (aspartate transaminase (AST) and alanine transaminase (ALT)), creatine kinase (CK), commonly assayed glycoproteins (thyroid stimulating hormone (TSH), thyroxine-binding globulin (TBG), and insulin-like growth factor binding protein 3 (IGF3BP)), and coagulation parameters (Factor IX, Factor XI, activated […] (aPTT), and anti-thrombin III (ATIII)), were measured in blood. Patent 1 had additional Factor XI, and XIII measurements. Serum galactose-1-phosphate and urine galactitol were measured to monitor safety and tolerability of galactose supplementation. Biochemical studies to evaluate changes in glycosylation included isoelectric focusing (IEF) of serum transferrin and glycomic analysis in blood by mass spectrometry.
Plasma (sodium heparin) or serum was used for glycomics analysis according to the procedure as described elsewhere (see, e.g., van Scherpenzeel et al., 2015 Transl Res 166:639-649.e1). Briefly, a 10 μl serum sample was purified using anti-transferrin beads. The eluate was analyzed on a microfluidic 6540 LC-chip-QTOF instrument (Agilent Technologies) using a C8 protein chip. Data analysis was performed using Agilent Mass Hunter Qualitative Analysis Software B.05.00.
The most abundant peaks in the transferrin mass spectrometry profiles were annotated, and ratios were calculated for the nonglycosylated (A-Glyco), monoglycosylated (Mono-Glyco), and trisialo- (Trisialo-Glyco) transferrin over the normal transferrin peak (tetrasialo; Di-Glyco). Ratios were compared in patient samples before D-gal supplementation and 18 weeks after starting oral supplements according to protocol. An example is shown in FIG. 5 for a severely (patient 2) and a mildly (patient 9) abnormal profile. A-Glyco- and Mono-Glyco ratios were abnormal in all patients. […] The most pronounced improvement was measured in patient 4. In patients 3 and 8, the A-Glyco peak normalized (Table 3, FIG. 6).

[2] = system: ICAM-1; test: ICAM-1 Western blotting with galactose supplementation, patient skin fibroblasts; details: patient 5; all doses

SMILES: O=C[C@H](O)[C@@H](O)[C@@H](O)[C@H](O)CO [D-gal, D-galactose]
- Transferrin glycosylation ([1]; 8 patients, type 2 pattern shifting to mild type 1 pattern): Clear improvement
- Ratio A-Glyco / DiGlyco transferrin ([1]; Patient 1): 0.042
- Ratio Mono-Glyco / DiGlyco transferrin ([1]; Patient 1): 0.198
- Ratio Trisialo-Glyco / DiGlyco transferrin ([1]; Patient 1): 0.0778
- Ratio A-Glyco / DiGlyco transferrin ([1]; Patient 2): 0.046
- Ratio Mono-Glyco / DiGlyco transferrin ([1]; Patient 2): 0.213
- Ratio Trisialo-Glyco / DiGlyco transferrin ([1]; Patient 2): 0.0542
- Ratio A-Glyco / DiGlyco transferrin ([1]; Patient 3): 0.002
- Ratio Mono-Glyco / DiGlyco transferrin ([1]; Patient 3): 0.071
- Ratio Trisialo-Glyco / DiGlyco transferrin ([1]; Patient 3): 0.0549
- Ratio A-Glyco / DiGlyco transferrin ([1]; Patient 4): 0.314
- Ratio Mono-Glyco / DiGlyco transferrin ([1]; Patient 4): 0.632
- Ratio Trisialo-Glyco / DiGlyco transferrin ([1]; Patient 4): 0.0938
- Ratio A-Glyco / DiGlyco transferrin ([1]; Patient 5): 0.021
- Ratio Mono-Glyco / DiGlyco transferrin ([1]; Patient 5): 0.142
- Ratio Trisialo-Glyco / DiGlyco transferrin ([1]; Patient 5): 0.0740
- Ratio A-Glyco / DiGlyco transferrin ([1]; Patient 6): 0.044
- Ratio Mono-Glyco / DiGlyco transferrin ([1]; Patient 6): 0.293
- Ratio Trisialo-Glyco / DiGlyco transferrin ([1]; Patient 6): 0.0639
- Ratio A-Glyco / DiGlyco transferrin ([1]; Patient 7): 0.108
- Ratio Mono-Glyco / DiGlyco transferrin ([1]; Patient 7): 0.356
- Ratio Trisialo-Glyco / DiGlyco transferrin ([1]; Patient 7): 0.0551
- Ratio A-Glyco / DiGlyco transferrin ([1]; Patient 8 (non-compliant)): 0.003
- Ratio Mono-Glyco / DiGlyco transferrin ([1]; Patient 8 (non-compliant)): 0.081
- Ratio Trisialo-Glyco / DiGlyco transferrin ([1]; Patient 8 (non-compliant)): 0.0712
- Ratio A-Glyco / DiGlyco transferrin ([1]; Patient 9): 0.019
- Ratio Mono-Glyco / DiGlyco transferrin ([1]; Patient 9): 0.127
- Ratio Trisialo-Glyco / DiGlyco transferrin ([1]; Patient 9): 0.0561
- Transferrin glycosylation pattern ([1]; T3): None of the patients showed a normalized pattern
- Transferrin glycosylation ([1]; patient 5): no change was observed
- A-glyco fraction ([1]; patients 3 and 8, 18 weeks): completely normalized
- ICAM-1 expression [2]: No improvement
